Reference: patent US20240335364A1, “COMPOSITIONS OF DICAFFEOYLQUINIC ACIDS WITH TOCOPHEROL” (SYMRISE AG, priority 2021, published 2024)

How the values were obtained:
[1] = system: DSC1; test: Modulation of DSC1 gene expression of keratinocytes (real-time qPCR, RQ); format: cell-based, human; set-up: key: RQ: expression relative to DMSO vehicle control; details: nHEK, 24 h
Protocol: (§1) Neonatal human epidermal keratinocytes (nHEK) were cultivated in an EpiLife® medium (Gibco) including an HKGS kit (Gibco) with 5% CO2 at 37° C. in accordance with the supplier's instructions. The cells were treated for 24 hours, with 0.0005% of the different dicaffeoylquinic acids from above dissolved in DMSO and DMSO alone as the vehicle control. Genomic target expression levels in treated cells were measured using a quantitative Real-Time PCR comparison to vehicle control treatment.
(§2) RNA was isolated using Qiagen's RNeasy® Mini Kit. The total RNA concentrations were measured using Eppendorf's μCuvetteG 1.0 and BioPhotometer, by measuring the absorption at 260 nm. Purity control values such as E260/280 and E260/230 were calculated simultaneously. Reverse transcription was performed using the high-capacity RNA-to-cDNA kit of Applied Biosystems, in accordance with the supplier's instructions. Samples were treated in Biometra's PCR Thermocycler. For fast real-time qPCR, the cDNA was diluted with RNase-free water, and the TaqMan™ Fast Universal PCR Master Mix of Applied Biosystems was used. Quantitative real time PCR was performed using the StepOnePlus fast real-time PCR instrument by Applied Biosystems. Analysis was conducted using the StepOne software and […] (normalised to endogenous control […] expression). For upregulations, RQ values ≥2.5 are considered to be relevant.
(§3) Neonatal human epidermal keratinocytes (nHEK) were cultivated as described in Example 1 and treated for 24 hours with 0.0007% of the different monocaffeoylquinic acids. Afterwards fast real-time qPCR was performed as described in above using a customised gene array.
(§4) Neonatal human epidermal keratinocytes (nHEK) were cultivated as described in Example 1 and treated for 24 hours with 0.005% of the extract samples. Afterwards fast real-time qPCR was performed as described in above using a customized gene array.
(§5) Neonatal human epidermal keratinocytes (nHEK) were cultivated as described in Example 1 and treated for 24 hours with 4,5-dicaffeoylquinic acid (CAS number 14534-61-3, Phytolab GmbH & Co. KG) and (±)-α-tocopherol (CAS number 10191-41-0, synonym: Synonym: DL-α-Tocopherol, Vitamin E, Sigma-Aldrich, synthetic) alone and in combination. Afterwards fast real-time qPCR was performed as described in above using a customised gene array.
(§6) [formula] • With • A=RQ value by 4,5-dicaffeoylquinic acid at concentration x • B=RQ value by tocopherol at concentration y • C=RQ value by the combination of 4,5-dicaffeoylquinic acid at concentration x/2 and tocopherol at concentration y/2 • D=Factor for 4,5-dicaffeoylquinic acid=>0.5 (due to half concentration tested in the combination) • E=Factor for tocopherol=>0.5 (due to half concentration tested in the combination) • A SI=1 is obtained for additive activity of the two combined components, whereas a SI <1 proves antagonistic activity (observed efficacy is lower than additive) and SI >1 proves synergistic activity (observed efficacy is higher than additive).
(§7) Neonatal human epidermal keratinocytes (nHEK) were cultivated as described in Example 1 and treated for 24 hours with 3,4-dicaffeoylquinic acid (CAS number 57378-72-0, Phytolab GmbH & Co. KG) and (+)-α-tocopherol (CAS number 59-02-9, synonym: Synonym: D-α-tocopherol, Vitamin E, Sigma-Aldrich) alone and in combination. Afterwards fast real-time qPCR was performed as described in above using a customised gene array. For upregulations, RQ values ≥2.5 are considered to be relevant.
(§8) Neonatal human epidermal keratinocytes (nHEK) were cultivated as described above and treated for 24 hours with yarrow extract of example 3 (Achillea millefolium, freeze-dried fresh press juice of flowering aerials, cultivated in Germany) and (±)-α-tocopherol (CAS number 10191-41-0, synonym: Synonym: DL-α-Tocopherol, Vitamin E, Sigma-Aldrich, synthetic) alone and in two combinations. Afterwards fast real-time qPCR was performed as described in above using a customised gene array. […]

[2] = system: DEFB1; test: Modulation of DEFB1 gene expression of keratinocytes (real-time qPCR, RQ); format: cell-based, human; set-up: key: RQ = expression relative to DMSO vehicle control (qPCR); details: nHEK, 24 h
Protocol: as §1, §2, §3, §5, §6
(§9) Neonatal human epidermal keratinocytes (nHEK) were cultivated as described above and treated for 24 hours with yarrow extract of example 3 (Achillea millefolium, freeze-dried fresh press juice of flowering aerials, cultivated in Germany) and (±)-α-tocopherol (CAS number 10191-41-0, synonym: Synonym: DL-α-Tocopherol, Vitamin E, Sigma-Aldrich, synthetic) alone and in two combinations. Afterwards fast real-time qPCR was performed as described in above using a customised gene array.
as §9, with “(+)-α-tocopherol” for “(±)-α-tocopherol”, “59-02-9,” for “10191-41-0,”, “D-α-tocopherol,” for “DL-α-Tocopherol,”, “Sigma-Aldrich)” for “Sigma-Aldrich, synthetic)”, “combination.” for “two combinations.”

[3] = system: DSG1; test: Modulation of DSG1 gene expression of keratinocytes (real-time qPCR, RQ); format: cell-based, human; set-up: key: relative quantity vs DMSO vehicle control (qPCR); details: nHEK, 24 h
Protocol: as §1, §2, §3, §4, §5, §6, §7
Neonatal human epidermal keratinocytes (nHEK) were cultivated as described above and treated for 24 hours with 3,5-dicaffeoylquinic acid (CAS number 2450-53-5, Phytolab GmbH & Co. KG) and D-α-tocopherol (CAS number 59-02-9, synonym: (+)-α-tocopherol, Vitamin E, trade name: Copherol® F 1300 C, BTC Europe GmbH) alone and in combination. Afterwards fast real-time qPCR was performed as described in above using a customised gene array. […]

[4] = system: CLDN1; test: Modulation of CLDN1 gene expression of keratinocytes (real-time qPCR, RQ); format: cell-based, human; details: nHEK, 24 h
Protocol: as §1, §2, §3, §4, §5, §6, §7, §9

[5] = system: Neonatal human epidermal keratinocytes (nHEK); test: Modulation of gene expression of keratinocytes, whole gene array (statements in words); format: cell-based; details: 24 h
Protocol: as §1, §2, §3, §4

[6] = system: CRYAB; test: Modulation of CRYAB gene expression of keratinocytes (real-time qPCR, RQ); format: cell-based, human; set-up: key: relative quantity (RQ) vs DMSO vehicle-treated control; details: nHEK, 24 h
Protocol: as §1, §2, §3, §4, §5, §6
Neonatal human epidermal keratinocytes (nHEK) were cultivated as described above and treated for 24 hours with 3,5-dicaffeoylquinic acid (CAS number 2450-53-5, Phytolab GmbH & Co. KG) and D-α-tocopherol (CAS number 59-02-9, synonym: (+)-α-tocopherol, Vitamin E, trade name: Copherol® F 1300 C, BTC Europe GmbH) alone and in combination. Afterwards fast real-time qPCR was performed as described in above using a customised gene array.
as §8

[7] = system: HSPB8; test: Modulation of HSPB8 gene expression of keratinocytes (real-time qPCR, RQ); format: cell-based, human; set-up: key: RQ: expression relative to DMSO vehicle control (qPCR); details: nHEK, 24 h
Protocol: as §1, §2, §3, §4, §5, §6, §9

[8] = system: HSPB2; test: Modulation of HSPB2 gene expression of keratinocytes (real-time qPCR, RQ); format: cell-based, human; set-up: key: relative quantity vs DMSO vehicle control (qPCR); details: nHEK, 24 h
Protocol: as §1, §2, §3, §5, §6, §9

[9] = system: OCLN; test: Modulation of OCLN gene expression of keratinocytes (real-time qPCR, RQ); format: cell-based, human; set-up: key: RQ: expression relative to DMSO vehicle control (qPCR); details: nHEK, 24 h
Protocol: as §1, §2, §3, §4, §5, §6, §9

[10] = 0.003% tocopherol alone, Example 8
[11] = 0.005% tocopherol alone, Example 7, Table 9
[12] = 0.005% tocopherol alone, Example 7, Table 10

Compound	RQ value DSC1 ([1]; 0.0007%, Example 2)	RQ value HSPB8 ([7]; 0.0007%, Example 2)	RQ value DEFB1 ([2]; 0.0007%, Example 2)	RQ value DSG1 ([3]; 0.0007%, Example 2)	RQ value HSPB2 ([8]; 0.0007%, Example 2)	RQ value CLDN1 ([4]; 0.0007%, Example 2)	RQ value OCLN ([9]; 0.0007%, Example 2)	RQ value CRYAB ([6]; 0.0007%, Example 2)	RQ value DSC1 ([1]; 0.0005%, Example 1)	RQ value HSPB8 ([7]; 0.0005%, Example 1)	RQ value DEFB1 ([2]; 0.0005%, Example 1)	RQ value DSG1 ([3]; 0.0005%, Example 1)	RQ value HSPB2 ([8]; 0.0005%, Example 1)	RQ value CLDN1 ([4]; 0.0005%, Example 1)	RQ value OCLN ([9]; 0.0005%, Example 1)	RQ value CRYAB ([6]; 0.0005%, Example 1)	further results
Cc1c(C)c2c(c(C)c1O)CC[C@@](C)(CCC[C@H](C)CCC[C@H](C)CCCC(C)C)O2 [(+)-alpha-tocopherol, (+)-α-tocopherol]																	RQ value DSC1 ([1]; 0.003% alone, Example 5): 0.6; RQ value DSC1 [1, 10]: 0.6; RQ value DEFB1 [2, 10]: 0.8; RQ value DSG1 ([3]; 0.003% alone, Example 5): 0.4; RQ value DSG1 [3, 10]: 0.4; RQ value DSG1 ([3]; 0.01% alone, Example 6): 0.7; RQ value CLDN1 ([4]; 0.003% alone, Example 5): 0.4; relevant modulation of the selected genes (RQ ≥2.5) ([5]; tocopherol alone at 0.003%): does not relevantly modulate any of the selected genes; relevant modulation of the selected genes (RQ ≥2.5) ([5]; tocopherol alone at 0.01%): does not relevantly modulate any of the selected genes; RQ value CRYAB [6, 10]: 0.7; RQ value CRYAB ([6]; 0.01% alone, Example 6): 0.5
O=C(/C=C/c1ccc(O)c(O)c1)O[C@H]1[C@H](O)C[C@](O)(C(=O)O)C[C@H]1O [4-caffeoyl-quinic acid, 4-caffeoylquinic acid]	2.2	1.0	1.9	1.9	2.2	0.8	1.0	1.9									
O=C(/C=C/c1ccc(O)c(O)c1)O[C@@H]1CC(O)(C(=O)O)C[C@@H](OC(=O)/C=C/c2ccc(O)c(O)c2)C1O (stereo partly shown) [3,5-Dicaffeoylquinic acid, 3,5-dicaffeoylquinic acid]									20.5	6.2	3.4	12.2	6.1	4.7	3.5	16.5	RQ value DSG1 ([3]; 0.0002% alone, Example 6): 2.4; RQ value CRYAB ([6]; 0.0002% alone, Example 6): 2.7
O=C(/C=C/c1ccc(O)c(O)c1)O[C@@H]1[C@H](O)C[C@@](O)(C(=O)O)C[C@H]1OC(=O)/C=C/c1ccc(O)c(O)c1 [3,4-Dicaffeoylquinic acid, 3,4-dicaffeoylquinic acid]									25.8	7.3	3.5	14.9	4.9	5.1	4.2	18.7	RQ value DSC1 ([1]; 0.0006% alone, Example 5): 6.2; RQ value DSG1 ([3]; 0.0006% alone, Example 5): 2.1; RQ value CLDN1 ([4]; 0.0006% alone, Example 5): 4.2
(±)-α-tocopherol [(±)-alpha-tocopherol]																	RQ value DSC1 ([1]; 0.005% alone, Example 4): 1.1; RQ value DSC1 [1, 11]: 1.3; RQ value DSC1 [1, 12]: 1.9; RQ value HSPB8 ([7]; 0.005% alone, Example 4): 1.0; RQ value HSPB8 [7, 11]: 1.2; RQ value HSPB8 [7, 12]: 2.3; RQ value DEFB1 ([2]; 0.005% alone, Example 4): 1.3; RQ value DEFB1 [2, 11]: 1.7; RQ value DSG1 ([3]; 0.005% alone, Example 4): 1.3; RQ value DSG1 [3, 11]: 1.4; RQ value DSG1 [3, 12]: 2.0; RQ value HSPB2 ([8]; 0.005% alone, Example 4): 1.4; RQ value CLDN1 ([4]; 0.005% alone, Example 4): 1.2; RQ value CLDN1 [4, 11]: 1.3; RQ value CLDN1 [4, 12]: 1.8; RQ value OCLN ([9]; 0.005% alone, Example 4): 1.7; RQ value OCLN [9, 11]: 2.4; relevant modulation of the selected genes (RQ ≥2.5) ([5]; tocopherol alone at 0.005%): does not relevantly modulate any of the selected genes; RQ value CRYAB ([6]; 0.005% alone, Example 4): 1.4; RQ value CRYAB [6, 11]: 1.3
O=C(/C=C/c1ccc(O)c(O)c1)O[C@@H]1C[C@@](O)(C(=O)O)C[C@@H](O)[C@@H]1O [5-caffeoyl-quinic acid, 5-caffeoylquinic acid]	0.7	0.6	0.7	0.5	1.0	0.8	0.8	0.7									
O=C(/C=C/c1ccc(O)c(O)c1)O[C@@H]1C[C@](O)(C(=O)O)C[C@@H](O)[C@H]1O [3-caffeoyl-quinic acid, 3-Caffeoylquinic acid]	1.0	0.8	1.1	0.7	0.8	0.8	1.0	0.9									
O=C(/C=C/c1ccc(O)c(O)c1)O[C@@H]1C[C@](OC(=O)/C=C/c2ccc(O)c(O)c2)(C(=O)O)C[C@@H](O)[C@H]1O [1,5-Dicaffeoylquinic acid, 1,5-dicaffeoylquinic acid]									7.6	2.8	2.4	5.3	2.4	2.4	2.2	7.2	
O=C(/C=C/c1ccc(O)c(O)c1)O[C@H]1[C@H](O)C[C@](O)(C(=O)O)C[C@H]1OC(=O)/C=C/c1ccc(O)c(O)c1 [4,5-Dicaffeoylquinic acid, 4,5-dicaffeoylquinic acid]									18.1	4.2	3.2	10.6	4.3	3.5	2.4	13.8	RQ value DSC1 ([1]; 0.0007% alone, Example 4): 25.0; RQ value HSPB8 ([7]; 0.0007% alone, Example 4): 6.2; RQ value DEFB1 ([2]; 0.0007% alone, Example 4): 4.3; RQ value DSG1 ([3]; 0.0007% alone, Example 4): 11.1; RQ value HSPB2 ([8]; 0.0007% alone, Example 4): 5.7; RQ value CLDN1 ([4]; 0.0007% alone, Example 4): 2.4; RQ value OCLN ([9]; 0.0007% alone, Example 4): 3.4; RQ value CRYAB ([6]; 0.0007% alone, Example 4): 21.1
